Measured values: patent US10723764B2, “Anti-microbial peptides and methods of use thereof” (priority 2011, dated 2020)
In brackets after ≈: the same amount, converted by molar mass. Where a SMILES comes first, the peptide text is derived from it. Where no end group is shown, it is not given here. [ ]: non-standard residue; d: D form. Bip = N[C@@H](Cc1ccc(-c2ccccc2)cc1)C(=O)O

Assays:
S. aureus V8 protease = S. aureus V8 protease (Staphylococcus aureus, UniProt P0C1U8); type: in vitro ADME; settings: peptide/protease 40:1, PBS pH 8, 37° C.
Experimental: (§1) FIG. 10 provides a stability comparison of synthetic 17BIPHE2 with GF-17 in the presence of bovine chymotrypsin, porcine trypsin, S. aureus protease V8, and fungal protease K. Two samples were analyzed in this gel for each protease: 0 and 6 hours for GF-17 and 0 and 24 hours for 17BIPHE2.
(§2) Peptide stability was evaluated based on a published protocol (Mishra et al. (2012) J. Am. Chem. Soc., 134:12426-12429) with one modification. Aliquots (10 μL) of the reaction solutions (peptide/protease molar ratio, 40:1) in 10 mM PBS buffer (pH 8) at 37° C. were taken at 0, 6, and 24 hours and immediately mixed with 10 μL of 2×SDS loading buffer followed by boiling for 5 minutes to stop the reaction. Samples were analyzed using 5% stacking/18% resolving tricine gel.

chymotrypsin = chymotrypsin (Bos taurus, UniProt P00766); assay: Peptide stability to chymotrypsin by SDS-PAGE; type: in vitro ADME, bovine; settings: for time the peptide stays intact in the presence of chymotrypsin: 12.5 μM chymotrypsin, peptide/protein 40:1, PBS pH 8, 37° C.
Experimental: A solution (100 μl) of the peptide and 12.5 μM chymotrypsin (peptide/protein molar ratio, 40:1) in 10 mM PBS buffer (pH 8) was incubated at 37° C. Aliquots (10 μl) of the reaction solutions were taken at 0, 2, 4, and 22 hours and immediately mixed with 20 μl of 2×SDS loading buffer to stop the reaction. For the gel analysis, 10 μl of each sample was loaded to the well of a 5% stacking/18% resolving tricine gel. The samples in the lanes are: 1, protein marker; 2, temporin-PTa L-form at 0 hour; 3, 2 hours; 4, 4 hours; 5, 22 hours; 6, temporin-PTa D-form at 0 hour; 7, 2 hours; 8, 4 hours; 9, 22 hours. In the gel, the bands for the peptide and chymotrypsin were indicated with large and small arrows, respectively. Note that the peptide bands were not detected in lanes 3-5 due to protease cleavage but remained essentially constant in lanes 7-9.
Peptide stability was evaluated using standard SDS-PAGE (described in FIG. 5).
as §2

E. faecium ATCC51559 = type: cell-based, Enterococcus faecium; settings: ATCC51559
Experimental: (§3) The antibacterial activities of the peptides were determined using the standard broth microdilution method (Mishra et al. (2012) J. Am. Chem. Soc., 134:12426-12429; Wang et al. (2005) Biol. Chem., 280:5803-5811). Briefly, the bacterial culture was treated with a series of peptide solutions, each with two-fold dilution. After overnight incubation at 37° C., the microplate was read on a ChroMate® 4300 Microplate Reader at 630 nm (GMI, Ramsey, Minn.).

[1] = tested on: methicillin-resistant Staphylococcus aureus USA300 LAC
Experimental: This was done by modifying the standard microdilution antimicrobial assays (Wang, G. (2008) J. Biol. Chem., 283:32637-32643). Specifically, the bacterial wells with a high peptide concentration (e.g. 100 μM) are duplicated (e.g., two for antimicrobial assays and two for protease stability assays). As an illustration, chymotrypsin was applied to the duplicated wells at a peptide:protease molar ratio of 25:1.

ESKAPE pathogens = type: cell-based
Experimental: as §3
A rational design was conducted on the basis of the 3D structure of GF-17d3. […] The noncoherent packing of the GF-17d3 side chains caused a hydrophobic defect in the structure (FIGS. 8C and 8D, arrow), leading to reduced hydrophobicity. Accordingly, it was hypothesized that the antimicrobial activity of this peptide 17F2 (sequence GX1KRLVQRLKDX2LRNLV (SEQ ID NO: 58), Table 9) could be enhanced by filling in the hydrophobic cavity (FIG. 8D, arrow) with a larger hydrophobic side chain. The antimicrobial activities of these peptide analogues were evaluated using the standard microdilution assays (Mishra et al. (2012) J. Am. Chem. Soc., 134:12426-12429), and the minimal inhibitory concentrations (MIC) against a panel of the ESKAPE pathogens are provided in Table 10. […] To compare the two sites, these two substitutions at positions X1 and X2 were swapped to obtain 17Naph-mF. […] In addition, biphenylalanines were incorporated at position X1 alone or at both X1 and X2 of the 17F2 template. […] The killing abilities of these peptides are essentially proportional to their MIC values as well as retention times (a measure of hydrophobicity) on a reverse-phase HPLC column (Mishra et al. (2012) J. Am. Chem. Soc., 134:12426-12429).

A. baumannii B2367-12 = type: cell-based, Acinetobacter baumanii
Experimental: as §3

human erythrocytes = tested on: human erythrocytes
Experimental: Peptide hemolysis was assayed using an established protocol (Malmsten et al. (2011) PLoS One 6:e16400). In brief, fresh blood, obtained from the UNMC Blood Bank, was washed three times with PBS buffer and made into a 5% solution. To 90 μL of this solution, 10 μL of a peptide solution was added and incubated at 37° C. for one hour. After centrifugation at 13,000 rpm, aliquots of the supernatant were transferred to a fresh 96 well microplate. The absorbance of the solutions was measured at 545 nm to detect the amount of hemoglobin released. The percent lysis was calculated by assuming 100% release when treated with 2% Triton X-100 and no lysis (0%) when treated with PBS buffer. HL50 was the peptide concentration that caused 50% lysis of human erythrocytes. The cell selectivity (CS) indexes were calculated as the ratio of HL50 to the MIC of the peptide against S. aureus USA300.
The hemolytic effects of the six peptides were also compared on human red blood cells (hRBC) using an established protocol (Malmsten et al. (2011) PLoS One 6:e16400). […] A high TI indicates good cell selectivity.
Peptide hemolysis was assayed using an established protocol (Menousek et al. (2012) Int. J. Antimicrob. Agents 39:402-406; Malmsten et al. (2011) PLoS One 6:e16400). Briefly, blood cells were washed three times with phosphate-buffered saline (PBS) and were diluted to a 5% solution. Following peptide treatment, incubation at 37° C. for 1 hour and centrifugation at 13,000 rpm, aliquots of the supernatant were transferred to a fresh 96-well microplate. To assess peptide cytotoxicity, the amount of hemoglobin released was measured at 545 nm. Percent lysis was calculated by assuming 100% release when human blood cells were treated with 2% Triton X-100 and 0% release when they were incubated with PBS buffer.

fungal protease K = fungal protease K (Parengyodontium album, UniProt P06873); assay: Peptide stability to fungal protease K by SDS-PAGE; type: in vitro ADME; settings: peptide/protease 40:1, PBS pH 8, 37° C.
Experimental: as §1, §2

[2] = tested on: Pseudomonas aeruginosa PAO1; type: cell-based
Experimental: (§4) The bacterial strains used in the study are Bacillus subtilis 168, methicillin-resistant Staphylococcus aureus USA300 LAC (Gram-positive), Escherichia coli K12, and Pseudomonas aeruginosa PAO1 (Gram negative). The antibacterial activities of the peptides were determined using the standard broth microdilution method (Wang et al. (2005) J. Biol. Chem., 280:5803-5811). In brief, the bacterial culture (90 μL) was treated with a series of peptide solutions (10 μL), each with two-fold dilution. After overnight incubation at 37° C., the microplate was read on a ChroMate® 4300 Microplate Reader at 630 nm (GMI, Ramsey, Minn.).
(§5) For the initial screen, antimicrobial activities of these peptides against S. aureus and E. coli were evaluated using the standard broth microdilution protocol (Wang, G. (2008) J. Biol. Chem., 283:32637-43). […] Subsequently, the in vitro activity of these six peptides was evaluated against Bacillus subtilis and Pseudomonas aeruginosa (Table 6). […] While maculatin 1.3 is active against two Gram-positive but not two Gram-negative bacterial strains, DASamP1 is species-specific since it active only against S. aureus. The finding that ascaphin-8, […], and piscidin 1 are wide-spectrum AMPs agrees with the literature (Apponyi et al. (2004) Peptides 25:1035-1054; Conlon et al. (2004) Biochem. Biophys. Res. Commun., 320:170-175; Silphaduang et al. (2001) Nature 414:268-269; Souza et al. (2005) J. Immunol., 186:6585-6596). For lycotoxin I, it was previously found to active against Gram-negative E. coli and yeast (Yan et al. (1998) J. Biol. Chem., 273:2059-2066).
as §3

E. cloacae B2366-12 = type: cell-based; settings: B2366-12
Experimental: as §3

Escherichia coli K12 = settings: Table 8
Bacillus subtilis 168 = type: cell-based
Experimental: as §4, §5

[3] = Peptide solubility (observation); type: physicochemical

Sequence of fungal protease K (P06873 106-384): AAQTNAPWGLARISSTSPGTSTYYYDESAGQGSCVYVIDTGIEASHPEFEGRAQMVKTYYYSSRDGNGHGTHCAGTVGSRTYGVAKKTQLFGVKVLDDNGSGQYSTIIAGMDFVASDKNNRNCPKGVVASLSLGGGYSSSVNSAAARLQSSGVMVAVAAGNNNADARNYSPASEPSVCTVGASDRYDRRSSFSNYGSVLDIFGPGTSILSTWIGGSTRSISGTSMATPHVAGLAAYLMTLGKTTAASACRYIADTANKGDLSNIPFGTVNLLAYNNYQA
Sequence of S. aureus V8 protease (P0C1U8 69-336): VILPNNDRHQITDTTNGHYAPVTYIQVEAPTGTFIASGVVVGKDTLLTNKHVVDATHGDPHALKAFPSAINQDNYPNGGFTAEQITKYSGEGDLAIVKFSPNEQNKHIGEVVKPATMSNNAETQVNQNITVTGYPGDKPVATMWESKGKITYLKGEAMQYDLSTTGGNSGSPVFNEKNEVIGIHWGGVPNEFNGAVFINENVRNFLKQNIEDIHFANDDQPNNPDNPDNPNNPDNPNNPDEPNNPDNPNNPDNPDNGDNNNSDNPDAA

Q: Which “time stable in the presence of S. aureus V8 protease” value (S. aureus V8 protease) does the source give for `CC(C)C[C@H](NC(=O)[C@H](CC(N)=O)NC(=O)[C@H](CCCNC(=N)N)NC(=O)[C@@H](CC(C)C)NC(=O)[C@H](Cc1ccc(-c2ccccc2)cc1)NC(=O)[C@H](CC(=O)O)NC(=O)[C@H](CCCCN)NC(=O)[C@@H](CC(C)C)NC(=O)[C@H](CCCNC(=N)N)NC(=O)[C@H](CCC(N)=O)NC(=O)[C@@H](NC(=O)[C@@H](CC(C)C)NC(=O)[C@H](CCCNC(=N)N)NC(=O)[C@H](CCCCN)NC(=O)[C@H](Cc1ccc(-c2ccccc2)cc1)NC(=O)CN)C(C)C)C(=O)N[C@H](C(N)=O)C(C)C` [D128A, GX1KRLVQRLKDX2LRNLV-amide] (H-G[Bip]KR[dL]VQR[dL]KD[Bip][dL]RNLV-NH2) here?
A: at least 24 hours

Q: What about the “level of intact peptide in the presence of chymotrypsin” value (chymotrypsin; during 4 hours) of the same compound?
A: remained constant

Q: What about the “MIC (μM) EF” value (E. faecium ATCC51559) of the same compound?
A: 3.1 µM (≈ 6.99 µg/mL)

Q: And the “MIC (μM) SA” value ([1]; S. aureus USA300 LAC, Table 10)?
A: 3.1 µM (≈ 6.99 µg/mL)

Q: And the “S. aureus USA 300 MIC” value ([1]; Table 8)?
A: 5 µM

Q: What about the “MIC against all of the ESKAPE pathogens” value (ESKAPE pathogens) of the same compound?
A: 3.1 to 6.2 µM

Q: And the “MIC (μM) AB” value (A. baumannii B2367-12)?
A: 3.1 µM (≈ 6.99 µg/mL)

Q: What about the “HL50 (μM), peptide concentration at which 50% human red blood cells were lysed” value (human erythrocytes; Table 8) of the same compound?
A: 150 µM

Q: And the “HL50 (μM), peptide concentration that causes 50% lysis of human erythrocytes” value (human erythrocytes; Table 10)?
A: 225 µM

Q: And the “time stable in the presence of fungal protease K” value (fungal protease K)?
A: at least 24 hours

Q: What about the “MIC (μM) PA” value [2] of the same compound?
A: 6.2 µM (≈ 14 µg/mL)

Q: And the “MIC (μM) EC” value (E. cloacae B2366-12)?
A: 3.1 µM (≈ 6.99 µg/mL)

Q: And the “E. coli K12 MIC” value (Escherichia coli K12)?
A: 2.5 µM

Q: Which “time the peptide stays intact in the presence of chymotrypsin” value (chymotrypsin) does the source give for `CC[C@@H](C)[C@@H](NC(=O)[C@@H](CCCCN)NC(=O)[C@H]1CCCN1C(=O)[C@H](NC(=O)[C@@H](CC(C)C)NC(=O)[C@@H](CCCCN)NC(=O)[C@@H](CC(C)C)NC(=O)[C@H](NC(=O)[C@@H](CO)NC(=O)CNC(=O)[C@@H](Cc1ccccc1)NC(=O)[C@H](N)Cc1ccccc1)C(C)C)[C@H](C)CC)C(=O)N[C@H](CC(C)C)C(N)=O` [Temporin-PTa (D-form)] here?
A: at least 22 hours

Q: And the “MIC (μM) BS” value (Bacillus subtilis 168)?
A: 6.25 µM (≈ 9.21 µg/mL)

Q: What about the “MIC (μM) PA” value [2] of the same compound?
A: >100 µM

Q: With `CC[C@H](C)[C@H](NC(=O)[C@H](CCCCN)NC(=O)[C@@H]1CCCN1C(=O)[C@@H](NC(=O)[C@H](CC(C)C)NC(=O)[C@H](CCCCN)NC(=O)[C@H](CC(C)C)NC(=O)[C@@H](NC(=O)[C@H](CO)NC(=O)CNC(=O)[C@H](Cc1ccccc1)NC(=O)[C@@H](N)Cc1ccccc1)C(C)C)[C@@H](C)CC)C(=O)N[C@@H](CC(C)C)C(N)=O` [Temporin-PTa, reference compound] as the compound, how does the “time the peptide stays intact in the presence of chymotrypsin” value (chymotrypsin) read?
A: ≤ 2 h

Q: For FFGSLLKLLPKLL-NH2 [Temporin-PTa6L], which “MIC (μM) BS” value (Bacillus subtilis 168) is on record?
A: 3.12 µM

Q: For “GIIPIISIIGKII-NH2 (C-terminus assumed) [DFTamP1-pi]”, which solubility [3] is on record?
A: poorly soluble

Q: Which “MIC (μM) BS” value (Bacillus subtilis 168) does the source give for LLGSLLKLLPKLL-NH2 [Temporin-PTa8L] here?
A: 3.12 µM

Q: And the “MIC (μM) PA” value [2]?
A: >100 µM
